In general, IC50 refers to the concentration that gives 50% inhibition.

The structures appear in SMILES notation.

Sequence of hQC (Q16769 29-361): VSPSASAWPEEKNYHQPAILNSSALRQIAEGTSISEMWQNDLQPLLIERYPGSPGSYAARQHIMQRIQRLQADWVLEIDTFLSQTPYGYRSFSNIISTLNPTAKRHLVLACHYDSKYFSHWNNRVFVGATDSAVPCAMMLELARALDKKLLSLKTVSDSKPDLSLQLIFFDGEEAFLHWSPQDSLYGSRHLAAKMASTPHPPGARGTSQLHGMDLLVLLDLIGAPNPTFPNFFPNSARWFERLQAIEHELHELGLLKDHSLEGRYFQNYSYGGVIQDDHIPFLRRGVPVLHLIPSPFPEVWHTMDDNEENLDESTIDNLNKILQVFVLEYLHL

The first assay addresses hQC (Homo sapiens, UniProt Q16769). Nature of the assay: Fluorometric assay of glutaminyl cyclase (QC) inhibition, H-Gln-βNA or H-Gln-AMC substrate. Type of assay: biochemical. The conditions noted are these: compound from preparative synthesis, purified by chromatography; fluorescent assay; read-out: IC50 hQC. An outline of the steps:
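Fluorometric coupled assays at 30° C in Tris/HCl pH 8.0 with EDTA and pyroglutamyl aminopeptidase used either 0.2 mM H-Gln-βNA (320/410 nm) or H-Gln-AMC (380/460 nm), started by QC. Screening used 4 mM inhibitor at substrate 1 KM. Ki came from fitting progress curves to competitive inhibition.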
As for `O=C1N/C(=N\C2CCCCC2)C(c2c(F)ccc(Cl)c2F)N1c1ccc2[nH]cnc2c1` (stereo not drawn) [Compound 220, 1-(1H-Benzoimidazol-5-yl)-5-(3-chloro-2,6-difluoro-phenyl)-4-(cyclohexylimino)-imidazolidin-2-one], the IC50 was found to be 0.0984 µM.
As for `CC(/N=C1\NC(=O)N(c2ccc3[nH]cnc3c2)C1c1ccccc1C(F)(F)F)C(C)(C)C` (stereo not drawn) [Compound 138, 1-(1H-Benzoimidazol-5-yl)-5-(2-trifluoromethyl-phenyl)-4-1,2,2-trimethyl-propylimino-imidazolidin-2-one], the IC50 was determined as 1.23 µM.

Staying with this assay, now noted: read-out: IC50.
With `O=C1N/C(=N/Cn2nnc3ccccc32)C(c2cc(F)cc(F)c2)N1c1ccc2[nH]cnc2c1` (stereo not drawn) [Compound 148, 1-(1H-Benzoimidazol-5-yl)-4-benzotriazol-1-ylmethylimino-5-(3,5-difluoro-phenyl)-imidazolidin-2-one], the IC50 worked out at 3.1 µM.
Same read-out and setting: the figure for `O=C1N/C(=N\c2ccc3c(c2)OCCO3)C(c2cccc(F)c2F)N1CCCn1ccnc1` (stereo not drawn) [Compound 31, 5-(2,3-Difluoro-phenyl)-4-2,3-dihydro-benzo1,4dioxin-6-ylimino-1-(3-imidazol-1-yl-propyl)-imidazolidin-2-one] is 9.4 µM; for `O=C1N/C(=N\CCC(c2ccccc2)c2ccccc2)C(c2ccccc2)N1CCCn1ccnc1` (stereo not drawn) [Compound 105, 4-3,3-Diphenyl-propylimino-1-(3-imidazol-1-yl-propyl)-5-phenyl-imidazolidin-2-one] it is 3.1 µM; for `O=C1N/C(=N\Cn2nnc3ccccc32)C(c2ccccc2F)N1c1ccc2[nH]cnc2c1` (stereo not drawn) [Compound 337, 1-(1H-Benzoimidazol-5-yl)-4-benzotriazol-1-ylmethylimino-5-(2-fluoro-phenyl)-imidazolidin-2-one] it is 1.3 µM.
On to `CCCCC1/C(=N/Cc2ccc(Cl)cc2)NC(=O)N1CCCn1ccnc1` (stereo not drawn) [Compound 22, 5-Butyl-4-4-chloro-benzylimino-1-(3-imidazol-1-yl-propyl)-imidazolidin-2-one], for which the IC50 was determined as 8.5 µM.
Same read-out and setting: as for `O=C1N/C(=N/CCC(c2ccccc2)c2ccccc2)C(CO)N1CCCn1ccnc1` (stereo not drawn) [Compound 111, 4-3,3-Diphenyl-propylimino-5-hydroxymethyl-1-(3-imidazol-1-yl-propyl)-imidazolidin-2-one], the figure is 9.4 µM; as for `CSc1ccc(C2/C(=N\Cn3nnc4ccccc43)NC(=S)N2c2ccc3[nH]cnc3c2)cc1` (stereo not drawn) [Compound 151, 1-(1H-Benzoimidazol-5-yl)-4-benzotriazol-1-ylmethylimino-5-(4-methylsulfanyl-phenyl)-imidazolidine-2-thione], 0.004 µM.
Regarding `CC(/N=C1\NC(=O)N(CCCn2ccnc2)C1c1cccc(F)c1F)c1ccccc1` (stereo not drawn) [Compound 9, 5-(2,3-Difluoro-phenyl)-1-(3-imidazol-1-yl-propyl)-4-1-phenyl-ethylimino-imidazolidin-2-one], the IC50 was 6.5 µM.
Still for that read-out and setting: as for `O=C1N/C(=N/Cc2ccccc2)C(c2ccc(O)cc2)N1CCCn1ccnc1` (stereo not drawn) [Compound 99, 4-Benzylimino-5-(4-hydroxy-phenyl)-1-(3-imidazol-1-yl-propyl)-imidazolidin-2-one], the figure is 6.7 µM; as for `O=C1N/C(=N\C2CCCC2)C(c2cc(Br)cc(Br)c2)N1c1ccc2[nH]cnc2c1` (stereo not drawn) [Compound 186, 1-(1H-Benzoimidazol-5-yl)-4-cyclopentylimino-5-(3,5-dibromo-phenyl)-imidazolidin-2-one], 0.004 µM; as for `CC(CC1/C(=N/C2CCCCCC2)NC(=S)N1c1ccc2nc[nH]c2c1)CC(C)(C)C` (stereo not drawn) [Compound 315, 1-(3H-Benzoimidazol-5-yl)-4-cycloheptylimino-5-(2,4,4-trimethyl-pentyl)-imidazolidine-2-thione], 7.6 µM.
On the same count and under the same terms, the figure for `O=C1N/C(=N\C2CCCCC2)C(c2c(F)ccc(Cl)c2F)N1c1ccc2[nH]cnc2c1` (stereo not drawn) [Compound 220, 1-(1H-Benzoimidazol-5-yl)-5-(3-chloro-2,6-difluoro-phenyl)-4-(cyclohexylimino)-imidazolidin-2-one] is 0.004 µM.
The same measure, in the same setting: the figure for `CN(C)c1ccc(C2/C(=N\Cn3nnc4ccccc43)NC(=O)N2c2ccc3[nH]cnc3c2)cc1` (stereo not drawn) [Compound 322, 1-(1H-Benzoimidazol-5-yl)-4-benzotriazol-1-ylmethylimino-5-(4-dimethylamino-phenyl)-imidazolidin-2-one] is 1.3 µM; for `O=c1c(C2/C(=N/Cc3ccccc3)NC(=S)N2c2ccc3[nH]cnc3c2)coc2ccccc12` (stereo not drawn) [Compound 124, 3-{3-(1H-Benzoimidazol-5-yl)-5-benzylimino-2-thioxo-imidazolidin-4-yl}-chromen-4-one] it is 3.1 µM.
As to `O=C1N/C(=N\CCc2cccs2)C(c2cccc(F)c2F)N1CCCn1ccnc1` (stereo not drawn) [Compound 40, 5-(2,3-Difluoro-phenyl)-1-(3-imidazol-1-yl-propyl)-4-2-thiophen-2-yl-ethylimino-imidazolidin-2-one], the concentration for half-maximal inhibition (IC50) stood at 4.9 µM.
Same read-out and setting: as for `O=C1N/C(=N\c2ccc(Oc3ccccc3)cc2)C(C2CCC=CO2)N1CCCn1ccnc1` (stereo not drawn) [Compound 100, 5-(3,4-Dihydro-2H-pyran-2-yl)-1-(3-imidazol-1-yl-propyl)-4-4-phenoxy-phenylimino-imidazolidin-2-one], the figure is 4.9 µM.
On the same count and under the same terms, as for `O=C1N/C(=N\C2CCc3ccccc32)C(c2ccnc3ccccc23)N1c1ccc2[nH]cnc2c1` (stereo not drawn) [Compound 121, 1-(1H-Benzoimidazol-5-yl)-4-indan-1-ylimino-5-quinolin-4-yl-imidazolidin-2-one], the figure is 0.4 µM.
Same read-out and setting: the figure for `Cc1ccc(C2/C(=N/C(C)(C)CC(C)(C)C)NC(=S)N2c2ccc3nc[nH]c3c2)cc1` (stereo not drawn) [Compound 118, 1-(3H-Benzoimidazol-5-yl)-4-1,1,3,3-tetramethyl-butylimino-5-p-tolyl-imidazolidine-2-thione] is 5.8 µM; for `Cc1ccc2occ(C3/C(=N/CCCN4CCOCC4)NC(=O)N3c3ccc4[nH]cnc4c3)c(=O)c2c1` (stereo not drawn) [Compound 263, 1-(1H-Benzoimidazol-5-yl)-5-(6-methyl-4-oxo-4H-chromen-3-yl)-4-3-morpholin-4-yl-propylimino-imidazolidin-2-one] it is 1.3 µM; for `O=C1CCCN1CCC/N=C1/NC(=O)N(c2ccc3[nH]cnc3c2)C1c1ccc2[nH]ccc2c1` (stereo not drawn) [Compound 289, 1-(1H-benzoimidazol-5-yl)-5-(1H-indol-5-yl)-4-3-(2-oxo-pyrrolidin-1-yl)-propylimino-imidazolidin-2-one] it is 0.004 µM.
With `C/N=C1/NC(=O)N(c2ccc3[nH]cnc3c2)C1c1ccc(C)cc1` (stereo not drawn) [Compound 167, 1-(1H-Benzoimidazol-5-yl)-4-methylimino-5-p-tolyl-imidazolidin-2-one], the IC50 was found to be 0.4 µM.
On the same count and under the same terms, as for `COCC/N=C1/NC(=O)N(c2ccc3[nH]cnc3c2)C1c1ccc(C)cc1` (stereo not drawn) [Compound 308, 1-(1H-Benzoimidazol-5-yl)-4-2-methoxy-ethylimino-5-p-tolyl-imidazolidin-2-one], the figure is 1.3 µM; as for `S=C1N/C(=N\c2cc(Cl)ccc2Cl)C(c2ccc(Cl)cc2)N1c1ccc2[nH]cnc2c1` (stereo not drawn) [Compound 194, 1-(1H-Benzoimidazol-5-yl)-5-(4-chloro-phenyl)-4-2,5-dichloro-phenylimino-imidazolidine-2-thione], 6.7 µM.
The same measure, in the same setting: as for `O=C1N/C(=N\C2CCCCC2O)C(c2ccc3[nH]ccc3c2)N1c1ccc2[nH]cnc2c1` (stereo not drawn) [Compound 122, 1-(1H-Benzoimidazol-5-yl)-4-2-hydroxy-cyclohexylimino-5-(1H-indol-5-yl)-imidazolidin-2-one], the figure is 0.4 µM; as for `O=C1N/C(=N/Cn2nnc3ccccc32)C(c2ccc3nsnc3c2)N1c1ccc2[nH]cnc2c1` (stereo not drawn) [Compound 271, 1-(1H-Benzoimidazol-5-yl)-5-benzo[c][1,2,5]thiadiazol-5-yl-4-benzotriazol-1-ylmethylimino-imidazolidin-2-one], 0.4 µM.
On the same count and under the same terms, as for `O=C(C/N=C1/NC(=O)N(c2ccc3[nH]cnc3c2)C1c1ccc2nsnc2c1)N1CCC(O)C1` (stereo not drawn) [Compound 282, 1-(1H-Benzoimidazol-5-yl)-5-benzo[c][1,2,5]thiadiazol-5-yl-4-2-(3-hydroxy-pyrrolidin-1-yl)-2-oxo-ethylimino-imidazolidin-2-one], the figure is 4.9 µM.
Consider `O=C1N/C(=N\C(c2ccccc2)c2ccccc2)C(c2cc(F)cc(F)c2)N1CCCn1ccnc1` (stereo not drawn) [Compound 84, 4-Benzhydrylimino-5-(3,5-difluoro-phenyl)-1-(3-imidazol-1-yl-propyl)-imidazolidin-2-one], for which the half-inhibitory concentration (IC50) worked out at 3.1 µM.
Same read-out and setting: as for `O=C1N/C(=N/Cc2ccccc2)C(c2ccc(Cl)c(F)c2)N1CCCn1ccnc1` (stereo not drawn) [Compound 96, 4-Benzylimino-5-(4-chloro-3-fluoro-phenyl)-1-(3-imidazol-1-yl-propyl)-imidazolidin-2-one], the figure is 6.7 µM; as for `CC(/N=C1\NC(=O)N(c2ccc3[nH]cnc3c2)C1c1ccccc1C(F)(F)F)C(C)(C)C` (stereo not drawn) [Compound 138, 1-(1H-Benzoimidazol-5-yl)-5-(2-trifluoromethyl-phenyl)-4-1,2,2-trimethyl-propylimino-imidazolidin-2-one], 0.004 µM; as for `O=C1N/C(=N\c2ccc3c(c2)OCCO3)C(c2ccc3c(c2)OCO3)N1c1ccc2[nH]cnc2c1` (stereo not drawn) [Compound 292, 5-Benzo1,3dioxol-5-yl-1-(1H-benzoimidazol-5-yl)-4-2,3-dihydro-benzo1,4dioxin-6-ylimino-imidazolidin-2-one], 1.3 µM.
With `O=C1N/C(=N\CCCN2CCOCC2)C(c2ccnc3ccccc23)N1c1ccc2[nH]cnc2c1` (stereo not drawn) [Compound 212, 1-(1H-Benzoimidazol-5-yl)-4-3-morpholin-4-yl-propylimino-5-quinolin-4-yl-imidazolidin-2-one], the IC50 amounted to 4.9 µM.
`S=C1N/C(=N\C2CCc3ccccc32)C(c2ccc(Br)cc2)N1c1ccc2[nH]cnc2c1` (stereo not drawn) [Compound 146, 1-(1H-Benzoimidazol-5-yl)-5-(4-bromo-phenyl)-4-indan-1-ylimino-imidazolidine-2-thione]: the IC50 came out at 1.3 µM.
Same read-out and setting: as for `O=C1N/C(=N/CCCc2ccccc2)C(c2ccc3[nH]ccc3c2)N1c1ccc2[nH]cnc2c1` (stereo not drawn) [Compound 224, 1-(1H-Benzoimidazol-5-yl)-5-(1H-indol-5-yl)-4-3-phenyl-propylimino-imidazolidin-2-one], the figure is 0.004 µM; as for `O=C(C/N=C1/NC(=O)N(CCCn2ccnc2)C1CO)N1CCc2ccccc2C1` (stereo not drawn) [Compound 72, 4-2-(3,4-Dihydro-1H-isoquinolin-2-yl)-2-oxo-ethylimino-5-hydroxymethyl-1-(3-imidazol-1-yl-propyl)-imidazolidin-2-one], 8.5 µM.
